Laboratory results as given in PubChem BioAssay AID248 (DTP/NCI, 2004).
“And” between values parts separate entries of the source, which are not always exact repeats. Equal values may be shown once. Inconclusive results and toxic doses are left out. No stated cut-off is given here; in the data, active means T/C of 150% or more; inactive means T/C below 125%.

System: L1210 leukemia ip in BDF1 mice, survival T/C
Test: NCI In Vivo Anticancer Drug Screen. Data for tumor model L1210 Leukemia (intraperitoneal) in B6D2F1 (BDF1) mice
Settings: endpoint: mean survival time, higher = longer survival
Outline: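 Transplantable tumor model; survival measured in treated vs vehicle control mice. Value = treated/control.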

[1] = dose: 100.0 mg/kg/injection, schedule: Q01DX001 (ip), vehicle: carboxymethylcellulose (CMC)
[2] = dose: 200.0 mg/kg/injection, schedule: Q01DX001 (ip), vehicle: carboxymethylcellulose (CMC)
[3] = dose: 400.0 mg/kg/injection, schedule: Q01DX001 (ip), vehicle: carboxymethylcellulose (CMC)
[4] = dose: 100.0 mg/kg/injection, schedule: Q01DX001 (ip), vehicle: saline
[5] = dose: 200.0 mg/kg/injection, schedule: Q01DX001 (ip), vehicle: saline
[6] = dose: 400.0 mg/kg/injection, schedule: Q01DX001 (ip), vehicle: saline
[7] = dose: 100.0 mg/kg/injection, schedule: Q01DX009 (ip), vehicle: saline
[8] = dose: 100.0 mg/kg/injection, schedule: Q04DX003 (ip), vehicle: saline
[9] = dose: 200.0 mg/kg/injection, schedule: Q01DX009 (ip), vehicle: saline
[10] = dose: 200.0 mg/kg/injection, schedule: Q04DX003 (ip), vehicle: saline
[11] = dose: 400.0 mg/kg/injection, schedule: Q04DX003 (ip), vehicle: saline
[12] = dose: 400.0 mg/kg/injection, schedule: Q01DX009 (ip), vehicle: saline
[13] = dose: 100.0 mg/kg/injection, schedule: Q01DX009 (ip), vehicle: saline with Tween-80
[14] = dose: 100.0 mg/kg/injection, schedule: Q04DX003 (ip), vehicle: saline with Tween-80
[15] = dose: 200.0 mg/kg/injection, schedule: Q01DX009 (ip), vehicle: saline with Tween-80
[16] = dose: 200.0 mg/kg/injection, schedule: Q04DX003 (ip), vehicle: saline with Tween-80
[17] = dose: 400.0 mg/kg/injection, schedule: Q01DX009 (ip), vehicle: saline with Tween-80
[18] = dose: 100.0 mg/kg/injection, schedule: Q01DX009 (ip), vehicle: Klucel (hydroxypropylcellulose) (HPC)
[19] = dose: 200.0 mg/kg/injection, schedule: Q01DX009 (ip), vehicle: Klucel (hydroxypropylcellulose) (HPC)
[20] = dose: 400.0 mg/kg/injection, schedule: Q01DX009 (ip), vehicle: Klucel (hydroxypropylcellulose) (HPC)
[21] = dose: 50.0 mg/kg/injection, schedule: Q01DX001 (ip), vehicle: Klucel (hydroxypropylcellulose) (HPC)
[22] = dose: 100.0 mg/kg/injection, schedule: Q04DX003 (ip), vehicle: Klucel (hydroxypropylcellulose) (HPC)
[23] = dose: 200.0 mg/kg/injection, schedule: Q04DX003 (ip), vehicle: Klucel (hydroxypropylcellulose) (HPC)
[24] = dose: 400.0 mg/kg/injection, schedule: Q04DX003 (ip), vehicle: Klucel (hydroxypropylcellulose) (HPC)

Measured: T/C

CCC1C(=O)OC2OC(c3ccccc3)(c3ccccc3)NC21 (configuration not stated)
inactive: [1] 88 % of control | [2] 88 % of control | [3] 90 % of control

COC(=O)C1C(=O)C(C(=O)OC)C(C)N(C)C1C (configuration not stated)
inactive: dose: 9.38 mg/kg/injection, schedule: Q01DX001 (ip), vehicle: other 98 % of control | dose: 18.75 mg/kg/injection, schedule: Q01DX001 (ip), vehicle: other 104 % of control | dose: 37.5 mg/kg/injection, schedule: Q01DX001 (ip), vehicle: other 95 % of control

O=C1C=CC(=O)C2C3C=CC(CC3)C12 (configuration not stated)
inactive: [4] 107 % of control | [5] 98 % of control | [6] 98 % of control

O=C1CCCCC1C(O)(C(=O)c1ccccc1)c1ccccc1 (configuration not stated)
inactive: dose: 100.0 mg/kg/injection, schedule: Q04DX002 (ip), vehicle: Klucel (hydroxypropylcellulose) (HPC) 100 % of control | dose: 200.0 mg/kg/injection, schedule: Q04DX002 (ip), vehicle: Klucel (hydroxypropylcellulose) (HPC) 96 % of control | dose: 400.0 mg/kg/injection, schedule: Q04DX002 (ip), vehicle: Klucel (hydroxypropylcellulose) (HPC) 100 % of control

NC(CS)C(=O)O (configuration not stated) (tested in a mixture with another compound)
inactive: [4] 108 % of control | [5] 92 % of control | [6] 89 % of control

CCNC(C)(C)C(SS)c1ccc(Br)cc1 (configuration not stated)
inactive: dose: 6.25 mg/kg/injection, schedule: Q01DX009 (ip), vehicle: water 98 % of control | dose: 12.5 mg/kg/injection, schedule: Q01DX009 (ip), vehicle: water 96 % of control | dose: 25.0 mg/kg/injection, schedule: Q01DX009 (ip), vehicle: water 94 % of control | dose: 50.0 mg/kg/injection, schedule: Q01DX009 (ip), vehicle: water 94 % of control and 91 % of control | dose: 100.0 mg/kg/injection, schedule: Q01DX009 (ip), vehicle: water 101 % of control | dose: 200.0 mg/kg/injection, schedule: Q01DX009 (ip), vehicle: water 93 % of control | dose: 400.0 mg/kg/injection, schedule: Q01DX009 (ip), vehicle: water 93 % of control

C[N+](C)(C)CCN=C(N)N[N+](=O)[O-]
inactive: [7] 97 % of control | [8] 97 % of control | [9] 99 % of control | [10] 98 % of control | [11] 98 % of control

O=S(=O)(Cc1ccccc1)C1CCCC1
inactive: [4] 104 % of control | [7] 96 % of control | dose: 100.0 mg/kg/injection, schedule: Q04DX003 (ip), vehicle: acetone 103 % of control | [5] 104 % of control | [9] 110 % of control | dose: 200.0 mg/kg/injection, schedule: Q04DX003 (ip), vehicle: acetone 97 % of control | [6] 93 % of control | [12] 113 % of control | dose: 400.0 mg/kg/injection, schedule: Q04DX003 (ip), vehicle: acetone 102 % of control

Cc1csc(N)c1C(N)=O
inactive: dose: 50.0 mg/kg/injection, schedule: Q01DX009 (ip), vehicle: saline with Tween-80 97 % of control | dose: 50.0 mg/kg/injection, schedule: Q04DX003 (ip), vehicle: saline with Tween-80 97 % of control | [13] 103 % of control | [7] 112 % of control | [14] 92 % of control | [8] 117 % of control | [15] 102 % of control | [9] 100 % of control | [16] 97 % of control | [10] 116 % of control | [17] 103 % of control | [12] 109 % of control | dose: 400.0 mg/kg/injection, schedule: Q04DX003 (ip), vehicle: saline with Tween-80 102 % of control | [11] 115 % of control

O=C(CC(O)(C(F)(F)F)C(F)(F)F)c1cccc(S(=O)(=O)F)c1
inactive: [14] 95 % of control | [16] 100 % of control

C(=N\Nc1nc2ccccc2s1)/c1ccnc2ccccc12
inactive: [18] 102 % of control | [19] 101 % of control | [20] 96 % of control

N#C/C(=C/Cc1ccc(Cl)cc1)Nc1ccccc1C(N)=O
inactive: dose: 12.5 mg/kg/injection, schedule: Q01DX001 (ip), vehicle: Klucel (hydroxypropylcellulose) (HPC) 101 % of control | dose: 25.0 mg/kg/injection, schedule: Q01DX001 (ip), vehicle: Klucel (hydroxypropylcellulose) (HPC) 101 % of control | [21] 102 % of control | dose: 75.0 mg/kg/injection, schedule: Q04DX003 (ip), vehicle: Klucel (hydroxypropylcellulose) (HPC) 104 % of control | dose: 115.0 mg/kg/injection, schedule: Q04DX003 (ip), vehicle: Klucel (hydroxypropylcellulose) (HPC) 104 % of control | dose: 170.0 mg/kg/injection, schedule: Q04DX003 (ip), vehicle: Klucel (hydroxypropylcellulose) (HPC) 98 % of control

CCCCCCCCCCCCCCCCNS(=O)(=O)c1ccc(N2CCOCC2)c(N)c1
inactive: [22] 93 % of control | [23] 98 % of control | [24] 94 % of control

Cc1ccc(C2(C(=O)O)CC2)cc1
inactive: [13] 100 % of control | [15] 97 % of control | [17] 94 % of control

CC(=O)CC(=O)C(F)(F)F.CC(=O)CC(=O)C(F)(F)F.CC(=O)CC(=O)C(F)(F)F.[Ru]
inactive: [1] 96 % of control | [2] 94 % of control | [3] 88 % of control

O=C(OCC(Cl)(Cl)Cl)OCC(Cl)(Cl)Cl
inactive: [22] 98 % of control | [23] 98 % of control

O=[N+]([O-])c1cc([N+](=O)[O-])c(/C=C/c2ccccc2)c([N+](=O)[O-])c1/C=C/c1ccccc1
inactive: [18] 104 % of control | [22] 97 % of control | [19] 98 % of control | [23] 101 % of control | [20] 98 % of control | [24] 97 % of control

CC(C)(C)c1cc(C(C)(C)[N+](C)(C)C)cc(C(C)(C)C)n1
inactive: [21] 102 % of control | dose: 100.0 mg/kg/injection, schedule: Q01DX001 (ip), vehicle: Klucel (hydroxypropylcellulose) (HPC) 90 % of control

C1CN2CCOB(O1)OCC2
inactive: dose: 69.0 mg/kg/injection, schedule: Q01DX009 (ip), vehicle: other 103 % of control | dose: 138.0 mg/kg/injection, schedule: Q01DX009 (ip), vehicle: other 98 % of control | dose: 275.0 mg/kg/injection, schedule: Q01DX009 (ip), vehicle: other 98 % of control

CCOC(=O)NC(=O)C1C2CC3OC(=O)C1C3C2 (configuration not stated)
inactive: [8] 102 % of control | [10] 102 % of control | [11] 98 % of control

O=C1c2cc(F)ccc2-c2cc([N+](=O)[O-])ccc21
inactive: [1] 94 % of control | [2] 94 % of control | [3] 99 % of control

COc1ccc([N+](=O)[O-])cc1NC(=O)Nc1cccc(O)c1
inactive: dose: 50.0 mg/kg/injection, schedule: Q01DX009 (ip), vehicle: Klucel (hydroxypropylcellulose) (HPC) 90 % of control | [18] 90 % of control | [19] 90 % of control
